Source: patent US6472408B1, “Dimeric compounds” (priority 2000, dated 2002)
Where a name gives a salt, the structure may show the parent alone. Read-outs that look alike come from different tables or passages of the source.

Assays:
[1] = target: T1, AChE (Rattus norvegicus, UniProt P37136); assay: biochemical; details: for Selectivity for AChE: IC50(BChE)/IC50(AChE)
T1 construct: Frontal cortex (brain dissected on ice) was homogenized in sodium phosphate buffer; from tissue; host or cells: rat frontal cortex homogenate
T1 sequence (P37136 32-614): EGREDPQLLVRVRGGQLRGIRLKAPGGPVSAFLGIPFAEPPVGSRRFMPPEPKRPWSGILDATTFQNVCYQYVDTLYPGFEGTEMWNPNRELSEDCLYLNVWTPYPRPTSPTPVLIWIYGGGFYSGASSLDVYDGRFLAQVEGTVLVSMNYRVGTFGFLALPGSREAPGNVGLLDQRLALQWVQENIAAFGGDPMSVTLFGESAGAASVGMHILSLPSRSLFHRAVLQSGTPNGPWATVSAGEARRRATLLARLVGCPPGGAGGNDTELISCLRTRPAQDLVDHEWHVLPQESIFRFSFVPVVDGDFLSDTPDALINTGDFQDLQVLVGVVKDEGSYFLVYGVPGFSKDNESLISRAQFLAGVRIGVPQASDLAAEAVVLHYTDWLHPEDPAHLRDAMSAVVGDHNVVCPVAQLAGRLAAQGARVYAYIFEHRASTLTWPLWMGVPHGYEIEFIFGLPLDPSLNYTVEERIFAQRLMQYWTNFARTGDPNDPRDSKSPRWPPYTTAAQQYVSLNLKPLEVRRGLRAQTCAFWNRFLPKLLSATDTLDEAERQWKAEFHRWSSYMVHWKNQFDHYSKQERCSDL
Procedure: (§1) Rat serum was obtained by centrifugation of blood (3500×g, 10 min.). The cholinesterase assays were performed using the cloroimetric method of Ellman, with minor modification. […] A mixture of 4 mL containing acetylthiocholine iodide (0.3 mM) or butrylthiocholine iodide (0.4 mM), I mL sodium phosphate buffer ([…], pH 7.4), a solution of the compound being tested (0.1 mL), and homogenate or serum (0.1 mL) was incubated at 37° C. for 8 minutes. The reaction was terminated by the addition of sodium dodecyl sulfate (3% w/v, 1 mL), after which the 5,5′-dithiobis-(2-nitrobenzoic acid) indicator (0.2% w/v, 1 mL) was added. Enzyme activity was determined by measuring the absorbance at 420 nm after 10 minutes, relative to the drug-free control.

[2] = target: T2, BChE (Rattus norvegicus, UniProt Q9JKC1); assay: biochemical; details: for IC50: rat serum
T2 construct: Rat serum was obtained by centrifugation of blood; from tissue; host or cells: rat serum
T2 sequence (Q9JKC1 24-597): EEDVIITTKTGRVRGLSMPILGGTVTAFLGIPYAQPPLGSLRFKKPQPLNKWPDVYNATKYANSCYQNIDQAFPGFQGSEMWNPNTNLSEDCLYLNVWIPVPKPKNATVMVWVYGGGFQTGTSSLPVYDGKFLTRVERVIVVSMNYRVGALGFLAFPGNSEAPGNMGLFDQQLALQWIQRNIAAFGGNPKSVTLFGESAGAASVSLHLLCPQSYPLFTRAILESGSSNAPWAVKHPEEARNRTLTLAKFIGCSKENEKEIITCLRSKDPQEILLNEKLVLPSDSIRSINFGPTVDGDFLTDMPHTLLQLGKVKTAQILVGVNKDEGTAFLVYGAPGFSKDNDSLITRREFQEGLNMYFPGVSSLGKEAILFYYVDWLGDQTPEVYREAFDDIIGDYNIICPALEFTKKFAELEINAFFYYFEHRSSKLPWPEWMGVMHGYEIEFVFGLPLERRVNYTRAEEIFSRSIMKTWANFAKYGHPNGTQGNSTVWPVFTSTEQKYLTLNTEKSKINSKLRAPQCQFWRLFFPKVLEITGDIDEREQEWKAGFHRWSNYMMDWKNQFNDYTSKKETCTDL
Procedure: as §1, with “AChE and BChE enzyme preparations were prepared from cortex and serum respectively of decapitated rats. Frontal cortex (brain dissected on ice) was homogenized in sodium phosphate buffer (39 vol. 75 mM, pH 7.4). Rat” for “Rat”

[3] = Table II, rat cortex homogenate, in the presence of ethopropazine as a specific BChE inhibitor, drugs assayed as hydrochloride or fumaric acid salts, read-out: AchE IC50
[4] = Table II, in the presence of BW284c51 as a specific AChE inhibitor, drugs assayed as salts
[5] = Table III, rat cornea homogenate, in the presence of ethopropazine, drugs 13 assayed as hydrochloride salts, read-out: AChE IC50
[6] = Table III, in the presence of BW284c51, drugs 13 assayed as hydrochloride salts
[7] = at 0.5 mM, the highest drug concentration tested

Row | SMILES | Selectivity for AChE ([1]; Table II) | IC50 [1, 3] [µM] | IC50 [2, 4] [µM] | also measured
1 | O=c1ccc2c([nH]1)CCCC2NCCCCCCNC1CCCc2[nH]c(=O)ccc21 (racemic) [rac-lmeso-13c] | 26.3 | 3.76 | 98.8 | –
2 | O=c1ccc2c([nH]1)CCCC2NCCCCCCCCCCNC1CCCc2[nH]c(=O)ccc21 (racemic) [rac-lmeso-13g] | – | – | 5.45 | –
3 | O=c1ccc2c([nH]1)CCCC2NCCCCNC1CCCc2[nH]c(=O)ccc21 (racemic) [rac-lmeso-13a] | 2.7 | 42.3 | 115 | –
4 | CC1(C)Cc2[nH]c(=O)ccc2C(NCCCCCCCCCNC2CC(C)(C)Cc3[nH]c(=O)ccc32)C1 (racemic) [rac-lmeso-14f] | 8.8 | 11.8 | 104 | –
5 | CC1(C)Cc2[nH]c(=O)ccc2C(NCCCCCCCCCCCCNC2CC(C)(C)Cc3[nH]c(=O)ccc32)C1 (racemic) [rac-lmeso-14i] | 17 | 3.62 | – | –
6 | O=c1ccc2c([nH]1)CCC[C@@H]2NCCCCCCCCCCCCCCN[C@H]1CCCc2[nH]c(=O)ccc21 [(S,S)-(−)-13k] | – | – | – | Selectivity for AChE ([1]; Table III): 248; IC50 [1, 5]: 0.24 ± 0.05 µM; IC50 [2, 6]: 59.5 µM
7 | O=c1ccc2c([nH]1)CCC[C@@H]2NCCCCCCCCCCCCN[C@H]1CCCc2[nH]c(=O)ccc21 [(S,S)-(−)-13i, (S,S)-(−)-N,N′-di-5′-(5′,6′,7′,8′-Tetrahydroquinolin-2-onyl)-1,12-diaminododecane, bis-Hydrochloride Salt] | – | – | – | IC50 [2, 6]: 9.6 µM
8 | Cn1c2c(ccc1=O)C(NCCCCCCCCCCNC1CCCc3c1ccc(=O)n3C)CCC2 (racemic) [rac-lmeso-15g, rac/meso-N,N′-di-5′-(5′,6′,7′,8′-Tetrahydro-1′-methyl-quinolinolyl)-1,10-diaminodecane, bis-Fumaric Acid] | 180 | 0.438 ± 0.029 | – | –
9 | O=c1ccc2c([nH]1)CCC[C@H]2NCCCCCCCCCCCCN[C@@H]1CCCc2[nH]c(=O)ccc21 [(R,R)-(+)-13i] | – | – | – | IC50 [2, 6]: 297 µM
10 | O=c1ccc2c([nH]1)CCCC2NCCCCCCCNC1CCCc2[nH]c(=O)ccc21 (racemic) [rac-lmeso-13d, rac-/meso-N′,N′-Di-5′-(5′,6′,7′,8′-Tetrahydroquinolin-2-onyl)-1,7-diaminoheptane, bis-Hydrochloride Salt] | 28.0 | 1.24 | 34.6 | –
11 | O=c1ccc2c([nH]1)CCCC2NCCCCCCCCCCCCNC1CCCc2[nH]c(=O)ccc21 (racemic) [rac-lmeso-13i] | – | – | 24.4 | –
12 | O=c1ccc2c([nH]1)CCC[C@@H]2NCCCCCCCCCCCCCN[C@H]1CCCc2[nH]c(=O)ccc21 [(S,S)-(−)-13j] | – | – | – | Selectivity for AChE ([1]; Table III): 321; IC50 [1, 5]: 0.052 ± 0.009 µM; IC50 [2, 6]: 16.7 µM
13 | CC1(C)Cc2[nH]c(=O)ccc2C(NCCCCCCCCCCNC2CC(C)(C)Cc3[nH]c(=O)ccc32)C1 (racemic) [rac-lmeso-14g] | 17 | 6.11 | – | –
14 | O=c1ccc2c([nH]1)CCC[C@@H]2NCCCCCCCCCCN[C@H]1CCCc2[nH]c(=O)ccc21 [(S,S)-(−)-13g] | – | – | – | IC50 [2, 6]: 1.82 µM
15 | COc1ccc2c(n1)CCCC2NCCCCCCCCCCNC1CCCc2nc(OC)ccc21 (racemic) [rac-lmeso-17g, rac-/meso-N,N′-di-5′-(5′,6′,7′,8′-Tetrahydro-2′-methoxy-quinolinyl)-1,10-diaminodecane, bis-Fumaric Acid] | 7.6 | 4.53 | 34.6 | –
16 | COc1ccc2c(n1)CCCC2NCCCCCCCCCCCCNC1CCCc2nc(OC)ccc21 (racemic) [rac-lmeso-17i] | 15.8 | 5 | 78.9 | fold increase in AChE IC50 relative to rac-/meso-13i [1]: 31 fold
17 | O=c1ccc2c([nH]1)CCCC2NCCCCCCCCNC1CCCc2[nH]c(=O)ccc21 (racemic) [rac-lmeso-13e] | 8.7 | 1.17 | 10.2 | –
18 | CC1(C)Cc2[nH]c(=O)ccc2C(NCCCCCCCNC2CC(C)(C)Cc3[nH]c(=O)ccc32)C1 (racemic) [rac-lmeso-14d, rac-/meso-N,N′-Di-5′-(7′,7′-Dimethyl-5′,6′,7′,8′-tetrahydroquinolin-2-onyl)-1,7-diaminoheptane, bis-Fumaric Acid Salt] | 10 | 18.3 | 190 | –
19 | O=c1ccc2c([nH]1)CCCC2NCCCCCNC1CCCc2[nH]c(=O)ccc21 (racemic) [rac-lmeso-13b] | 9.1 | 10.5 | – | –
20 | O=c1ccc2c([nH]1)CCCC2NCCCCCCCCCNC1CCCc2[nH]c(=O)ccc21 (racemic) [rac-lmeso-13f] | 30.3 | 0.356 ± 0.007 | – | –
21 | CC1(NCCCCCCCCCCNC2(C)CCCc3[nH]c(=O)ccc32)CCCc2[nH]c(=O)ccc21 (racemic) [rac-lmeso-19g, rac-/meso-N,N′-di-5′-(5′,6′,7′,8′-Tetrahydro-5′-methylquinolinonyl)-1,10-diaminodecane, Fumaric Acid Salt] | 6.6 | 1.86 | – | fold less potent than 13 g ([1]; AChE potency): 8 fold
22 | CCCCNC1CCCc2[nH]c(=O)ccc21 (racemic) [(±)-16, 5-n-Butylamino-5,6,7,8-tetrahydroquinolinone, bis-Hydrochloride, reference compound] | ·1 | – | ~500 | IC50 [1]: ~500 µM; inhibition at 500 µM [1, 7]: ~50%; inhibition at 500 µM [2, 7]: ~50%
23 | O=c1ccc2c([nH]1)CCC[C@@H]2NCCCCCCCCCCCN[C@H]1CCCc2[nH]c(=O)ccc21 [(S,S)-(−)-13h] | – | – | – | Selectivity for AChE ([1]; Table III): 13.8; IC50 [1, 5]: 0.084 ± 0.005 µM; IC50 [2, 6]: 1.16 µM
